{
  "source": "patent US20030228583A1",
  "about": "“Biomarkers of liver response” (priority 2001, published 2003)",
  "key": {"[1]": {"system": "Liver Response-Associated Features (LRFs) in serum/plasma (blood)", "test": "Proteome analysis (2D electrophoresis, Reference Protocol) of depleted serum/plasma of drug-treated vs control animals: relative abundance of LRFs", "from_the_text": "Samples from animals treated with various drugs at various timepoints and various dose levels can be collected, prepared, and analysed as described herein. […] Using the following procedure, proteins in liver tissue and serum/plasma from 5 control animals and 5 animals having liver response induced through drug treatment were separated by isoelectric focusing followed by SDS-PAGE and analyzed. Samples were taken and analyzed at three different time points designated “early”, “full manifestation” and “late”. Parts 6.1.1 to 6.1.9 (inclusive) of the procedure set forth below are hereby designated as the “Reference Protocol”.\nApproximately 200 μl venous blood was collected at the time of necropsy in serum seperation tubes and serum obtained by centrifugation for 3 minutes at 11,000 rpm using a Biofuge A centrifuge. 100 μl of the resulting serum was added to 15 μl protease inhibitor, vortexed and frozen at −80° C.\nA protein assay (Pierce (Rockford, Ill.) BCA Cat #23225) was performed on each serum/plasma sample as received. Prior to protein separation, each sample was processed for selective depletion of certain proteins, in order to enhance and simplify protein separation and facilitate analysis by removing proteins that may interfere with or limit analysis of proteins of interest. See International Patent Application No. PCT/GB99/01742, filed Jun. 1, 1999, which is incorporated by reference in its entirety, with particular reference to pages 3 and 6.\nThis was done by circulating the following solutions sequentially through the columns: (1) Dulbecco's Phosphate Buffered Saline (Gibco BRL Cat. No. 14190-094); (2) concentrated antibody solution; (3) 200 mM sodium carbonate buffer, pH 8.35; (4) cross-linking solution (200 mM sodium carbonate buffer, pH 8.35, 20 mM dimethylpimelimidate); and (5) 500 mM ethanolamine, 500 mM NaCl. A third (un-derivatised) protein G Hi-Trap column was then attached to the lower end of the tandem column assembly.\nThe chromatographic procedure was automated using an Akta Fast Protein Liquid Chromatography (FPLC) System such that a series of up to seven runs could be performed sequentially. […] Fractions (typically 3 ml per tube) were collected of unbound material (“Flowthrough fractions”) that eluted through the column during column loading and washing stages and of bound proteins (“Bound/Eluted fractions”) that were eluted by step elution with Immunopure Gentle Ag/Ab Elution Buffer (Pierce Cat. No. 21013). The eluate containing unbound material was collected in fractions which were pooled, desalted/concentrated by centrifugal ultrafiltration and stored to await further analysis by 2D PAGE.\nA volume of depleted serum/plasma containing approximately 300 μg of total protein was aliquoted and an equal volume of 10% (w/v) SDS (Fluka 71729), 2.3% (w/v) dithiothreitol (BDH 443852A) was added. The sample was heated at 95° C. for 5 mins, and then allowed to cool to 20° C . 125 μl of the following buffer was then added to the sample:\nThis mixture was vortexed, and centrifuged at 13000 rpm for 5 mins at 15° C., and the supernatant was analyzed by isoelectric focusing.\nIsoelectric focusing (IEF), was performed using the Immobiline® DryStrip Kit (Pharmacia BioTech), following the procedure described in the manufacturer's instructions, see Instructions for Immobilineg DryStrip Kit, Pharmacia, #18-1038-63, Edition AB (incorporated herein by reference in its entirety). Immobilized pH Gradient (IPG) strips (18 cm, pH 3-10 non-linear strips; Pharmacia Cat. #17-1235-01) were rehydrated overnight at 20° C. in a solution of 8M urea, 2% (w/v) CHAPS, 10 mM DTT, 2% (v/v) Resolytes 3.5-10, as described in the Immobiline DryStrip Users Manual. For IEF, 50 μl of supernatant (prepared as above) was loaded onto a strip, with the cup-loading units being placed at the basic end of the strip."}, "Male Sprague-Dawley rats": {"system": "Male Sprague-Dawley rats", "test": "Phenobarbital rat toxicity study (clinical observations, body weight, clinical laboratory measurements, organ weights, histopathology)"}, "[2]": {"conditions": "final necropsy (twelve days post dose)"}},
  "data": [
    {"smiles": "CCC1(c2ccccc2)C(=O)NC(=O)NC1=O", "note": "[phenobarbital]", "values": [
      {"measurement": "Fold Change LRF-235", "setting": "[1]; Early, P 0.0075", "result": 8.26, "unit": "fold"},
      {"measurement": "Fold Change LRF-223", "setting": "[1]; Early, P 0.0117", "result": 1.34, "unit": "fold"},
      {"measurement": "Fold Change LRF-158", "setting": "[1]; Early, P 0.0119", "result": "−1.33", "unit": "fold"},
      {"measurement": "Fold Change LRF-217", "setting": "[1]; Early, P 0.0122", "result": 2.16, "unit": "fold"},
      {"measurement": "Fold Change LRF-182", "setting": "[1]; Early, P 0.0178", "result": "−2.81", "unit": "fold"},
      {"measurement": "Fold Change LRF-179", "setting": "[1]; Early, P 0.0212", "result": "−1.37", "unit": "fold"},
      {"measurement": "Fold Change LRF-224", "setting": "[1]; Early, P 0.0216", "result": 1.30, "unit": "fold"},
      {"measurement": "Fold Change LRF-369", "setting": "[1]; Late, P 0.0097", "result": 2.53, "unit": "fold"},
      {"measurement": "Fold Change LRF-371", "setting": "[1]; Late, P 0.0109", "result": 3.02, "unit": "fold"},
      {"measurement": "Fold Change LRF-257", "setting": "[1]; Middle, P 0.0122", "result": "−1.42", "unit": "fold"},
      {"measurement": "Fold Change LRF-259", "setting": "[1]; Middle, P 0.0212", "result": "−1.34", "unit": "fold"},
      {"measurement": "Fold Change LRF-294", "setting": "[1]; Middle, P 0.0216", "result": 1.57, "unit": "fold"},
      {"measurement": "Clinical observations", "setting": "Male Sprague-Dawley rats; 100 mg/kg/day oral gavage, rat", "result": "generally well tolerated with no adverse clinical signs observed in any of the control or treated groups other than decreased activity"},
      {"measurement": "Survival", "setting": "Male Sprague-Dawley rats; 100 mg/kg/day oral gavage, rat", "result": "survived"},
      {"measurement": "Gross pathology observations", "setting": "Male Sprague-Dawley rats; 100 mg/kg/day oral, rat", "result": "no treatment-related gross findings"},
      {"measurement": "Creatinine decreased", "setting": "Male Sprague-Dawley rats; day 2, 100 mg/kg/day oral, rat", "result": 1.7, "unit": "×"},
      {"measurement": "Serum/plasma urea nitrogen decreased", "setting": "Male Sprague-Dawley rats; day 2, 100 mg/kg/day oral, rat", "result": 1.8, "unit": "×"},
      {"measurement": "Total protein decreased", "setting": "Male Sprague-Dawley rats; day 2, 100 mg/kg/day oral, rat", "result": 1.1, "unit": "×"},
      {"measurement": "Cholesterol increased", "setting": "Male Sprague-Dawley rats; day 5, 100 mg/kg/day oral, rat", "result": 1.5, "unit": "×"},
      {"measurement": "Glucose decreased", "setting": "Male Sprague-Dawley rats; day 5, 100 mg/kg/day oral, rat", "result": 1.6, "unit": "×"},
      {"measurement": "Serum/plasma urea nitrogen increased", "setting": "Male Sprague-Dawley rats; day 12, 100 mg/kg/day oral, rat", "result": 1.2, "unit": "×"},
      {"measurement": "% reticulocytes", "setting": "Male Sprague-Dawley rats; days 5 and 12", "result": "small but significant decreases"},
      {"measurement": "Group mean body weights vs concurrent controls", "setting": "Male Sprague-Dawley rats; either interim necropsy", "result": "No significant treatment-related changes"},
      {"measurement": "Mean body weight vs concurrent controls", "setting": "Male Sprague-Dawley rats; final necropsy", "result": "significant decrease"},
      {"measurement": "Absolute liver weights", "setting": "Male Sprague-Dawley rats; [2]", "result": "about the same as control"},
      {"measurement": "Relative liver weight increased", "setting": "Male Sprague-Dawley rats; [2]", "result": "about 1.06 × control mean"},
      {"measurement": "Liver weights increased", "setting": "Male Sprague-Dawley rats; five days post dose", "result": "about 1.5 × control mean"},
      {"measurement": "Increased numbers of hepatocytes with apoptotic bodies or mitotic figures, incidence", "setting": "Male Sprague-Dawley rats; same time point as centrilobular hypertrophy", "result": "3 of 5"},
      {"measurement": "Liver weights increased", "setting": "Male Sprague-Dawley rats; two days post dose", "result": "about 1.1 × control mean"},
      {"measurement": "Centrilobular hypertrophy, incidence", "setting": "Male Sprague-Dawley rats; two days post dose (so in the source)", "result": "5 of 5"},
      {"measurement": "Group means of the various hematology parameters (except % reticulocytes)", "setting": "Male Sprague-Dawley rats; vs vehicle control animals", "result": "not altered"}
    ]}
  ]
}
